Bridge positions count the residues as written; N and C are the ends. Square brackets hold non-standard residues; d marks the D form. Peptide text beside a SMILES is read from it. * marks the point of attachment. ξ: configuration not given here. Phe(4-COOH) = N[C@@H](Cc1ccc(C(=O)O)cc1)C(=O)O; Bip = N[C@@H](Cc1ccc(-c2ccccc2)cc1)C(=O)O; Phe(3-Me) = Cc1cccc(C[C@H](N)C(=O)O)c1; Cha = N[C@@H](CC1CCCCC1)C(=O)O; Cit = NC(=O)NCCC[C@H](N)C(=O)O; Thr(3ξ) = CC(O)[C@H](N)C(=O)O; hSer = N[C@@H](CCO)C(=O)O; Carboxymethyl = O=C(O)C*; Orn = NCCC[C@H](N)C(=O)O; Aun = NCCCCCCCCCCC(=O)O; Dab = NCC[C@H](N)C(=O)O; AEEA = NCCOCCOCC(=O)O

For the assay, the target named is T1, PD-1/PD-L1 interaction (PE-labeled human PD-L1-Ig binding to Jurkat cell line over-expressing human PD-1) (Homo sapiens, UniProt Q15116).
T1 construct: expressed in transfected cells; host or cells: Jurkat
T1 sequence (Q15116 25-288): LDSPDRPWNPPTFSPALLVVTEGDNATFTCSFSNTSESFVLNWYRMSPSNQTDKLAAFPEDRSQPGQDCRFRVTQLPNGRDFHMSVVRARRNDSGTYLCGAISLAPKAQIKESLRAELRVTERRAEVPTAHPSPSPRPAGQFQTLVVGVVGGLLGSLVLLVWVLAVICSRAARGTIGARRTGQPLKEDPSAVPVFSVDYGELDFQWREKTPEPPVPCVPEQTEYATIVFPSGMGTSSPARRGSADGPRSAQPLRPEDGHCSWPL
The experiment in a line: Jurkat-PD-1 Cell Binding High-Content Screening Assay (CBA). It counts as cell-based. To be noted: Jurkat cell line over-expressing human PD-1; PE-labeled PD-L1-Ig 20 nM final; read-out: Jurkat hPD1-PDL1 IC50. An outline of the steps: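 Jurkat cells stably over-expressing human PD-1 were seeded in DMEM with 10% fetal calf serum and pre-incubated with compound for 2 h at 37° C. PE-labeled human PD-L1-Ig was then added at 20 nM final for 1 hour, after which cells were fixed with paraformaldehyde, Hoechst-stained and imaged by high-content microscopy.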
As usually defined, the IC50 is the point on the concentration scale where inhibition reaches its midpoint. Regarding `Cc1cccc(C[C@@H]2NC(=O)[C@H](CC(=O)O)NC(=O)[C@H](Cc3ccc(OCC(=O)O)cc3)NC(=O)[C@H](CCCNC(=N)N)NC(=O)CSC[C@@H](C(=O)NCCOCCOCC(=O)NCCCCCCCCCCC(=O)O)NC(=O)[C@H](C(C)O)NC(=O)[C@H](C(C)C)NC(=O)[C@H](CC3CCCCC3)NC(=O)[C@H](CCN)NC(=O)[C@@H](CC(C)C)NC(=O)[C@H](CCCNC(N)=O)NC(=O)[C@H](Cc3ccc(OCC(=O)O)cc3)NC(=O)[C@H](Cc3ccc(-c4ccccc4)cc3)NC(=O)[C@H](Cc3ccc(OCC(=O)O)cc3)NC2=O)c1` (stereo partly drawn) [Compound 3481] ({CH2CO}-RY(Carboxymethyl)D[Phe(3-Me)]Y(Carboxymethyl)[Bip]Y(Carboxymethyl)[Cit][dL][Dab][Cha]V[Thr(3ξ)]C[AEEA][Aun]-OH; thioether N-14), the IC50 is 71.6 nM.
For `Cc1cccc(C[C@@H]2NC(=O)[C@H](CC(=O)O)NC(=O)[C@H](Cc3ccc(OCC(=O)O)cc3)NC(=O)[C@H](C(C)O)NC(=O)CSC[C@@H](C(=O)N[C@@H](CCN)C(=O)NCCCCCCCCCCC(=O)O)NC(=O)[C@H](CCO)NC(=O)[C@H](C(C)C)NC(=O)[C@H](CC3CCCCC3)NC(=O)[C@H](CCN)NC(=O)[C@@H](CC(C)C)NC(=O)[C@H](CCCN)NC(=O)[C@H](Cc3ccc(OCC(=O)O)cc3)NC(=O)[C@H](Cc3ccc(-c4ccccc4)cc3)NC(=O)[C@H](Cc3ccc(OCC(=O)O)cc3)NC2=O)c1` (stereo partly drawn) [Compound 3482] ({CH2CO}-[Thr(3ξ)]Y(Carboxymethyl)D[Phe(3-Me)]Y(Carboxymethyl)[Bip]Y(Carboxymethyl)[Orn][dL][Dab][Cha]V[hSer]C[Dab][Aun]-OH; thioether N-14), the 50% inhibitory concentration (IC50) came to 7.5 nM.
The same measure for `Cc1cccc(C[C@@H]2NC(=O)[C@H](CC(=O)O)NC(=O)[C@H](Cc3ccc(OCC(=O)O)cc3)NC(=O)[C@H](C(C)O)NC(=O)CSC[C@@H](C(=O)N[C@@H](CCN)C(=O)NCCCCCCCCCCC(=O)O)NC(=O)[C@H](CCO)NC(=O)[C@H](C(C)C)NC(=O)[C@H](CC3CCCCC3)NC(=O)[C@H](CCN)NC(=O)[C@@H](CC(C)C)NC(=O)[C@H](CCCN)NC(=O)[C@H](Cc3ccc(OCC(=O)O)cc3)NC(=O)[C@H](Cc3ccc(-c4ccccc4)cc3)NC(=O)[C@H](Cc3ccc(C(=O)O)cc3)NC2=O)c1` (stereo partly drawn) [Compound 3483] ({CH2CO}-[Thr(3ξ)]Y(Carboxymethyl)D[Phe(3-Me)][Phe(4-COOH)][Bip]Y(Carboxymethyl)[Orn][dL][Dab][Cha]V[hSer]C[Dab][Aun]-OH; thioether N-14): 9.5 nM; for `Cc1cccc(C[C@@H]2NC(=O)[C@H](CC(=O)O)NC(=O)[C@H](Cc3ccc(OCC(=O)O)cc3)NC(=O)[C@H](C(C)O)NC(=O)CSC[C@@H](C(=O)N[C@@H](CCN)C(=O)NCCCCCCCCCCC(=O)O)NC(=O)[C@H](C(C)O)NC(=O)[C@H](C(C)C)NC(=O)[C@H](CC3CCCCC3)NC(=O)[C@H](CCN)NC(=O)[C@@H](CC(C)C)NC(=O)[C@H](CCCN)NC(=O)[C@H](Cc3ccc(OCC(=O)O)cc3)NC(=O)[C@H](Cc3ccc(-c4ccccc4)cc3)NC(=O)[C@H](Cc3ccc(C(=O)O)cc3)NC2=O)c1` (stereo partly drawn) [Compound 3484] ({CH2CO}-[Thr(3ξ)]Y(Carboxymethyl)D[Phe(3-Me)][Phe(4-COOH)][Bip]Y(Carboxymethyl)[Orn][dL][Dab][Cha]V[Thr(3ξ)]C[Dab][Aun]-OH; thioether N-14): 6.7 nM; for `Cc1cccc(C[C@@H]2NC(=O)[C@H](CC(=O)O)NC(=O)[C@H](Cc3ccc(OCC(=O)O)cc3)NC(=O)[C@H](C(C)O)NC(=O)CSC[C@@H](C(=O)N[C@@H](CCN)C(=O)NCCCCCCCCCCC(=O)O)NC(=O)[C@H](C(C)O)NC(=O)[C@H](C(C)C)NC(=O)[C@H](CC3CCCCC3)NC(=O)[C@H](CCN)NC(=O)[C@@H](CC(C)C)NC(=O)[C@H](CCCN)NC(=O)[C@H](Cc3ccc(OCC(=O)O)cc3)NC(=O)[C@H](Cc3ccc(-c4ccccc4)cc3)NC(=O)[C@H](CCCNC(N)=O)NC2=O)c1` (stereo partly drawn) [Compound 3485] ({CH2CO}-[Thr(3ξ)]Y(Carboxymethyl)D[Phe(3-Me)][Cit][Bip]Y(Carboxymethyl)[Orn][dL][Dab][Cha]V[Thr(3ξ)]C[Dab][Aun]-OH; thioether N-14): 16.4 nM.

These data come from patent publication US20260022142A1, “MACROCYCLIC IMMUNOMODULATORS” (Bristol-Myers Squibb Company, priority 2022, published 2026).
